Results on two molecules are retold here after patent publication US11382889B2, “NRF2 activators for the prevention and/or treatment of axonal degeneration” (priority 2018, dated 2022).

The subject of the assay is X-ALD fibroblasts. The assay is described as follows: NRF2 response (HMOX1, NQO1, GCLC expression) in X-ALD patient fibroblasts incubated with excess VLCFA. The class given is cell-based, human. Particulars: normalized to RPLP0, fold change to vehicle. As to the method:
This means that the NRF-2 target genes HMOX1, NQO1 and GCLC increase their expression when incubated with excess VLCFA. See FIG. 4 (n=8 per genotype and condition). Gene expression normalized relative to RPLP0. Quantification depicted as fold change to vehicle-treated (Veh) fibroblasts.

`Cc1c[nH]c(-c2cnc(NCCNc3ccc(C#N)cn3)nc2-c2ccc(Cl)cc2Cl)n1` [CT99021]: the “NRF2 response: expression of NRF-2 target genes HMOX1, NQO1 and GCLC” value was “restore a normal NRF2 response”.
With `Cn1cc(C2=C(c3ccc(Cl)cc3Cl)C(=O)NC2=O)c2ccccc21` [SB216763] the entry was “restore a normal NRF2 response”.
